Source: patent US8334266B2, “Process for and intermediates in the preparation of canfosfamide and its salts” (Telik, Inc., priority 2004, dated 2012)
Counter-ions that a name gives are not always drawn.

Assays:
[1] = system: ovarian, breast, non-small cell lung, and colorectal cancers; details: cited from earlier work
[2] = system: HL-60 (promyeloid myelocytic leukemia)
Protocol: (§1) The human cancer cell lines HL-60 (promyeloid myelocytic leukemia) and MX-1 (breast carcinoma) were obtained from the National Cancer Institute, Bethesda, Md., U.S.A. The CellTiter-Glo assay kit was obtained from Promega Corporation, Madison, Wis., U.S.A, and was used in accordance with the manufacturer's directions. All assays were conducted in triplicate wells, with dimethyl sulfoxide (DMSO) solvent control. The extent of cell growth was expressed as a percentage of the signal from the solvent control wells.
(§2) Log-phase cells were trypsinized, collected by centrifugation, and resuspended in a small volume of fresh medium, and the density of viable cells was determined following Trypan Blue staining. Cells were diluted in fresh media (5×10^3 cells/mL for HL-60 and 3×10^3 cells/mL for MX-1 cells), Compound 4A (concentrations between 0.1 and 200 μM, dissolved in DMSO, 50 μL) added immediately after dilution to achieve a final DMSO concentration of 0.5%, then the suspensions added at 150 μL/well to 96-well plates, and incubated for several hours to allow attachment in the case of adherent cells. The cells were cultured for approximately three doubling times (3 days). The cells were then collected by centrifugation, and 100 μL of the culture supernatant was replaced by the CellTiter-Glo reagent. After incubation for 15 minutes at room temperature, and the plate was read with a luminometer.

MX-1 (breast carcinoma) = details: MX-1, cultured 3 days, CellTiter-Glo
Protocol: as §1, §2

[3] = system: M6709 human colon carcinoma cell line selected for resistance to doxorubicin; details: resistant line overexpresses GST P1-1; cited from earlier work
[4] = system: M7609 engineered to have high, medium, and low levels of GST P1-1; details: murine xenografts; cited from earlier work
[5] = system: MCF-7 human breast carcinoma cell line selected for resistance to cyclophosphamide; details: resistant line overexpresses GST P1-1; cited from earlier work
[6] = system: in vitro cell culture and tumor biopsies; details: cited from earlier work

What does the source list for `N[C@@H](CCC(=O)N[C@@H](CS(=O)(=O)CCOP(=O)(N(CCCl)CCCl)N(CCCl)CCCl)C(=O)N[C@@H](C(=O)O)c1ccccc1)C(=O)O` [Canfosfamide hydrochloride]?
hematological toxicity ([1]; patients treated): very low incidence of clinically significant hematological toxicity; antitumor activity ([1]; single agent, colorectal and breast cancer): single agent antitumor activity; antitumor activity and survival ([1]; single agent, patients with non-small cell lung cancer and ovarian cancer): significant single agent antitumor activity and improvement in survival

With `O=C(CC[C@H](NC(=O)OCc1ccccc1)C(=O)O)N[C@@H](CS(=O)(=O)CCOP(=O)(N(CCCl)CCCl)N(CCCl)CCCl)C(=O)N[C@@H](C(=O)O)c1ccccc1` [Compound 4A, N-α-(benzyloxycarbonyl)-L-γ-glutamyl-3-[[2-[[bis[bis(2-chloroethyl)amino]phosphinyl]oxy]-ethyl]sulfonyl]-L-alanyl-2-phenyl-(2R)-glycine] as the compound, how does the IC50 ([2]; HL-60, cultured 3 days, CellTiter-Glo) read?
Its IC50 is 2.2 µM.

And the “potency compared with canfosfamide” value ([2]; in this assay (HL-60 and MX-1 cell lines))?
Its value is “approximately as potent as canfosfamide”.

What about the IC50 (MX-1 (breast carcinoma)) of the same compound?
The IC50 was 34.6 µM.

Which “potency relative to parental cell line” value [3] does the source give for `N[C@@H](CCC(=O)N[C@@H](CS(=O)(=O)CCOP(=O)(N(CCCl)CCCl)N(CCCl)CCCl)C(=O)N[C@@H](C(=O)O)c1ccccc1)C(=O)O` [canfosfamide, L-γ-glutamyl-3-[[2-[[bis[bis(2-chloroethyl)amino]phosphinyl]oxy]ethyl]sulfonyl]-L-alanyl-2-phenyl-(2R)-glycine] here?
Its value is “more potent”.

What about the “potency in relation to GST P1-1 level” value [4] of the same compound?
The value was “positively correlated with the level of GST P1-1”.

And the “potency relative to parental cell line” value [5]?
The value was “more potent”.

And the “cross-resistance to platinum, paclitaxel, doxorubicin and gemcitabine” value [6]?
Its value is “non-cross-resistant”.
